Data as given in patent publication US20220370416A1, “COMPOUNDS AND METHODS FOR TARGETED DEGRADATION OF KRAS” (Arvinas Operations, Inc., priority 2020, published 2022).

How the values were obtained:
HiBit-KRAS^G12C [1] = biological target: T1, HiBit-KRAS^G12C (Homo sapiens, UniProt P01116, G12C); assay: HiBit degradation assay in SW1573 HiBit-KRas^G12C cells; format: cell-based; design: expressed in transfected cells; host or cells: SW1573 (clone E6), modified pcDNA3.1 vector, TK promoter; conditions: 24 hours; for DC50: read-out: KRas^G12C-HIBit (SW1573; 0.1% DMSO) DC50*
How it was run: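 HiBit-KRAS G12C degradation was measured after a 24 h compound exposure (titrated 10 μM–20 nM) in engineered SW1573 cells. Lytic HiBit luminescence, expressed relative to DMSO controls, yielded DC50 and Dmax from 4-parameter fits. Concentrations causing ≥50% loss in alamar blue viability were omitted as cytotoxic.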

HiBit-KRAS^G12C [2] = biological target: T1, HiBit-KRAS^G12C; assay: HiBit degradation assay in MiaPaCa-2 HiBit-KRas^G12C cells; format: cell-based; conditions: 24 hours; for Dmax: maximum degradation
How it was run: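 DC50 and Dmax come from 4-parameter fits of DMSO-normalized HiBit luminescence after 24 hours' exposure at 37° C to 10 μM–20 nM compound in 0.1% or 0.5% DMSO. Cells: MiaPaCa-2 carrying one endogenously HiBit-tagged KRAS^G12C allele; concentrations causing ≥50% […] viability loss (alamar blue) excluded.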

[3] = SW1573 HiBit-KRas^G12C, 0.1% DMSO
[4] = MIA PaCa-2, read-out: KRas^G12C-HiBiT (MiaPaCa; 0.1% DMSO) DMax, MiaPaCa-2 HiBit-KRas^G12C cells, 0.1% DMSO
[5] = SW1573, read-out: KRas^G12C-HiBit (SW1573; 0.1% DMSO) Dmax**, SW1573 HiBit-KRas^G12C, 0.1% DMSO
[6] = SW1573, read-out: KRas^G12C-HiBiT (SW1573; 0.5% DMSO) Dmax**, SW1573 HiBit-KRas^G12C, 0.5% DMSO
[7] = MIA PaCa-2, read-out: KRas^G12C-HiBiT (MiaPaCa; 0.5% DMSO) DMax, MiaPaCa-2 HiBit-KRas^G12C cells, 0.5% DMSO

T1 sequence (P01116 1-186 isoform P01116-2 G12C limits assumed): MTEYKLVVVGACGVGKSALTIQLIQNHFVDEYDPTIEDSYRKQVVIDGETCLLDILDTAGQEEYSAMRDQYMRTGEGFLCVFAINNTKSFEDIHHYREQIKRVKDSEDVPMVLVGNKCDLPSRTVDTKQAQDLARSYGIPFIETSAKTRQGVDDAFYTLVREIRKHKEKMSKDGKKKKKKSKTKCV

Dmax (HiBit-KRAS^G12C [1]; SW1573, SW1573 HiBit-KRas^G12C, 0.1% DMSO, read-out: KRas^G12C-HiBit (SW1573; 0.1% DMSO) Dmax**) [%]	Dmax (HiBit-KRAS^G12C [1]; SW1573, SW1573 HiBit-KRas^G12C, 0.5% DMSO, read-out: KRas^G12C-HiBiT (SW1573; 0.5% DMSO) Dmax**) [%]	Dmax (HiBit-KRAS^G12C [2]; MIA PaCa-2, MiaPaCa-2 HiBit-KRas^G12C cells, 0.1% DMSO, read-out: KRas^G12C-HiBiT (MiaPaCa; 0.1% DMSO) DMax) [%]	Dmax (HiBit-KRAS^G12C [2]; MIA PaCa-2, MiaPaCa-2 HiBit-KRas^G12C cells, 0.5% DMSO, read-out: KRas^G12C-HiBiT (MiaPaCa; 0.5% DMSO) DMax) [%]	Structure (SMILES)	DC50 (HiBit-KRAS^G12C [1]; [3]) [µM]	Dmax (HiBit-KRAS^G12C [2]; [4]) [%]	DC50 (HiBit-KRAS^G12C [2]; read-out: KRas^G12C-HiBiT (MiaPaCa; 0.1% DMSO) IC50, MiaPaCa-2 HiBit-KRas^G12C cells, 0.1% DMSO) [µM]	Dmax (HiBit-KRAS^G12C [1]; [5]) [%]	Dmax (HiBit-KRAS^G12C [1]; [6]) [%]	Dmax (HiBit-KRAS^G12C [2]; [7]) [%]
				C=CC(=O)N1CCN(c2nc(OCCN3CCC(OCCOc4cc([C@@H](C(=O)N5C[C@@H](O)C[C@H]5C(=O)N[C@@H](C)c5ccc(-c6scnc6C)cc5)C(C)C)on4)CC3)nc3c(F)c(-c4cc(O)cc5ccccc45)c(Cl)cc23)C[C@@H]1CC#N [Compound 5, (2S,4S)-1-[(2S)-2-{3-[2-({1-[2-({6-chloro-4-[(3S)-3-(cyanomethyl)-4-(prop-2-enoyl)piperazin-1-yl]-8-fluoro-7-(3-hydroxynaphthalen-1-yl)quinazolin-2-yl}oxy)ethyl]piperidin-4-yl}oxy)ethoxy]-1,2-oxazol-5-yl}-3-methylbutanoyl]-4-hydroxy-N-[(1S)-1-[4-(4-methyl-1,3-thiazol-5-yl)phenyl]ethyl]pyrrolidine-2-carboxamide]	> 1	< 35	0.1 to 1			
				C=CC(=O)N1CCN(c2nc(OCCN3CCC(COCC(=O)N[C@H](C(=O)N4C[C@@H](O)C[C@H]4C(=O)N[C@@H](C)c4ccc(-c5scnc5C)cc4)C(C)(C)C)CC3)nc3c(F)c(-c4cc(O)cc5ccccc45)c(Cl)cc23)C[C@@H]1CC#N [Compound 6, (2S,4S)-1-[(2S)-2-[2-({1-[2-({6-chloro-4-[(3S)-3-(cyanomethyl)-4-(prop-2-enoyl)piperazin-1-yl]-8-fluoro-7-(3-hydroxynaphthalen-1-yl)quinazolin-2-yl}oxy)ethyl]piperidin-4-yl}methoxy)acetamido]-3,3-dimethylbutanoyl]-4-hydroxy-N-[(1S)-1-[4-(4-methyl-1,3-thiazol-5-yl)phenyl]ethyl]pyrrolidine-2-carboxamide]	> 1	35 to 70				
				C=CC(=O)N1CCN(c2nc(OCCN3CCC(OCCOCC(=O)N[C@H](C(=O)N4C[C@@H](O)C[C@H]4C(=O)N[C@@H](C)c4ccc(-c5scnc5C)cc4)C(C)(C)C)CC3)nc3c(F)c(-c4cc(O)cc5ccccc45)c(Cl)cc23)C[C@@H]1CC#N [Compound 7, (2S,4S)-1-[(2S)-2-{2-[2-({1-[2-({6-chloro-4-[(3S)-3-(cyanomethyl)-4-(prop-2-enoyl)piperazin-1-yl]-8-fluoro-7-(3-hydroxynaphthalen-1-yl)quinazolin-2-yl}oxy)ethyl]piperidin-4-yl}oxy)ethoxy]acetamido}-3,3-dimethylbutanoyl]-4-hydroxy-N-[(1S)-1-[4-(4-methyl-1,3-thiazol-5-yl)phenyl]ethyl]pyrrolidine-2-carboxamide]	> 1	35 to 70				
				C=CC(=O)N1CCN(c2nc(O[C@H](C)CN3CCC(COCC(=O)N[C@H](C(=O)N4C[C@H](O)C[C@H]4C(=O)N[C@@H](C)c4ccc(-c5scnc5C)cc4)C(C)(C)C)CC3)nc3c(F)c(-c4cc(O)cc5cccc(C)c45)c(Cl)cc23)CC1 [Compound 11, (2S,4R)-1-[(2S)-2-[2-({1-[(2R)-2-{[6-chloro-8-fluoro-7-(3-hydroxy-8-methylnaphthalen-1-yl)-4-[4-(prop-2-enoyl)piperazin-1-yl]quinazolin-2-yl]oxy}propyl]piperidin-4-yl}methoxy)acetamido]-3,3-dimethylbutanoyl]-4-hydroxy-N-[(1S)-1-[4-(4-methyl-1,3-thiazol-5-yl)phenyl]ethyl]pyrrolidine-2-carboxamide]	0.1 to 1	35 to 70		35 to 70		
				C=CC(=O)N1CCN(c2nc(O[C@H]3CCC[C@@H]3N3CCC(COCC(=O)N[C@H](C(=O)N4C[C@H](O)C[C@H]4C(=O)N[C@@H](C)c4ccc(-c5scnc5C)cc4)C(C)(C)C)CC3)nc3c(F)c(-c4cc(O)cc5ccccc45)c(Cl)cc23)CC1 [Compound 12, (2S,4R)-1-[(2S)-2-[2-({1-[(1S,2S)-2-{[6-chloro-8-fluoro-7-(3-hydroxynaphthalen-1-yl)-4-[4-(prop-2-enoyl)piperazin-1-yl]quinazolin-2-yl]oxy}cyclopentyl]piperidin-4-yl}methoxy)acetamido]-3,3-dimethylbutanoyl]-4-hydroxy-N-[(1S)-1-[4-(4-methyl-1,3-thiazol-5-yl)phenyl]ethyl]pyrrolidine-2-carboxamide]	0.1 to 1	< 35		35 to 70	35 to 70	< 35
				C=CC(=O)N1CCN(c2nc(O[C@@H]3CCC[C@H]3N3CCC(COCC(=O)N[C@H](C(=O)N4C[C@H](O)C[C@H]4C(=O)N[C@@H](C)c4ccc(-c5scnc5C)cc4)C(C)(C)C)CC3)nc3c(F)c(-c4cc(O)cc5ccccc45)c(Cl)cc23)CC1 [Compound 13, (2S,4R)-1-[(2S)-2-[2-({1-[(1R,2R)-2-{[6-chloro-8-fluoro-7-(3-hydroxynaphthalen-1-yl)-4-[4-(prop-2-enoyl)piperazin-1-yl]quinazolin-2-yl]oxy}cyclopentyl]piperidin-4-yl}methoxy)acetamido]-3,3-dimethylbutanoyl]-4-hydroxy-N-[(1S)-1-[4-(4-methyl-1,3-thiazol-5-yl)phenyl]ethyl]pyrrolidine-2-carboxamide]	0.1 to 1	35 to 70		35 to 70	35 to 70	35 to 70
				C=C(F)C(=O)N1CCN(c2nc(OCCN3CCC(COCC(=O)N[C@H](C(=O)N4C[C@H](O)C[C@H]4C(=O)N[C@@H](C)c4ccc(-c5scnc5C)cc4)C(C)(C)C)CC3)nc3c(F)c(-c4cc(O)cc5ccccc45)c(Cl)cc23)C[C@@H]1CC#N [Compound 15, (2S,4R)-1-[(2S)-2-[2-({1-[2-({6-chloro-4-[(3S)-3-(cyanomethyl)-4-(2-fluoroprop-2-enoyl)piperazin-1-yl]-8-fluoro-7-(3-hydroxynaphthalen-1-yl)quinazolin-2-yl}oxy)ethyl]piperidin-4-yl}methoxy)acetamido]-3,3-dimethylbutanoyl]-4-hydroxy-N-[(1S)-1-[4-(4-methyl-1,3-thiazol-5-yl)phenyl]ethyl]pyrrolidine-2-carboxamide]	0.1 to 1	35 to 70		> 70		
> 70	> 70	35 to 70	> 70	C=C(F)C(=O)N1CCN(c2nc(OCCN3CCC(OCCOc4cc([C@H](C(=O)N5C[C@H](O)C[C@H]5C(=O)N[C@@H](C)c5ccc(-c6scnc6C)cc5)C(C)C)on4)CC3)nc3c(F)c(-c4cc(O)cc5ccccc45)c(Cl)cc23)C[C@@H]1CC#N [Compound 16, (2S,4R)-1-[(2R)-2-{3-[2-({1-[2-({6-chloro-4-[(3S)-3-(cyanomethyl)-4-(2-fluoroprop-2-enoyl)piperazin-1-yl]-8-fluoro-7-(3-hydroxynaphthalen-1-yl)quinazolin-2-yl}oxy)ethyl]piperidin-4-yl}oxy)ethoxy]-1,2-oxazol-5-yl}-3-methylbutanoyl]-4-hydroxy-N-[(1S)-1-[4-(4-methyl-1,3-thiazol-5-yl)phenyl]ethyl]pyrrolidine-2-carboxamide]	0.1 to 1					
